Patent publication US8895585B2, “Nicotinamide derivative or salt thereof” (FUJIFILM Corporation, priority 2010, dated 2014)

target: T1, glutathione S-transferase (GST)-fused full-length human Syk protein (Homo sapiens, UniProt P43405); assay: Syk enzyme assay; format: biochemical; details: Syk enzyme assay, Test Example 1; read-out: IC50 of Syk-inhibitory activity
T1 construct: (GST)-fused full-length human Syk protein; GST (glutathione S-transferase); purchased Carna Biosciences
Summary of the method: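 IC50 values come from a time-resolved FRET readout (615 and 665 nm) of substrate phosphorylation, measured after an EDTA stop and 1 h antibody binding. The kinase reaction ran 40 min at room temperature with 27 μM ATP and 0.4 μM biotin-peptide, following a 15 min compound preincubation with baculovirus-made GST-full-length human Syk.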

SMILES | IC50
NC(=O)c1cc(F)c(N[C@@H]2CCCC[C@@H]2N)nc1Nc1cncc(COCc2ccccc2)c1 (relative stereo) [Example 004-189, 6-(cis-2-aminocyclohexylamino)-2-((5-((benzyloxy)methyl)pyridin-3-yl)amino)-5-fluoronicotinamide] | 50 to 100 nM
NC(=O)c1cc(F)c(N[C@@H]2CCCC[C@@H]2N)nc1Nc1ccnc(COCc2ccccc2)c1 (relative stereo) [Example 004-192, 6-(cis-2-aminocyclohexylamino)-2-((2-((benzyloxy)methyl)pyridin-4-yl)amino)-5-fluoronicotinamide] | 50 to 100 nM
NC(=O)c1cc(F)c(N[C@@H]2CCCC[C@@H]2N)nc1Nc1cncc(CO)c1 (relative stereo) [Example 004-193, 6-(cis-2-aminocyclohexylamino)-5-fluoro-2-((5-(hydroxymethyl)pyridin-3-yl)amino)nicotinamide] | 50 to 100 nM
NC(=O)c1cc(F)c(N[C@@H]2CCCC[C@@H]2N)nc1Nc1ccnc(CO)c1 (relative stereo) [Example 004-194, 6-(cis-2-aminocyclohexylamino)-5-fluoro-2-((2-(hydroxymethyl)pyridin-4-yl)amino)nicotinamide] | 10 to 50 nM
NC(=O)c1cc(F)c(N[C@@H]2CCCC[C@@H]2N)nc1Nc1cncc(-c2cccc(F)c2F)c1 (relative stereo) [Example 004-204, 6-(cis-2-aminocyclohexylamino)-2-((5-(2,3-difluorophenyl)pyridin-3-yl)amino)-5-fluoronicotinamide] | < 10 nM
NC(=O)c1cc(F)c(N[C@@H]2CCCC[C@@H]2N)nc1Nc1cncc(-c2cc(F)ccc2F)c1 (relative stereo) [Example 004-205, 6-(cis-2-aminocyclohexylamino)-2-((5-(2,5-difluorophenyl)pyridin-3-yl)amino)-5-fluoronicotinamide] | < 10 nM
NC(=O)c1cc(F)c(N[C@@H]2CCCC[C@@H]2N)nc1Nc1cncc(-c2cccc(Cl)c2F)c1 (relative stereo) [Example 004-206, 6-(cis-2-aminocyclohexylamino)-2-((5-(3-chloro-2-fluorophenyl)pyridin-3-yl)amino)-5-fluoronicotinamide] | < 10 nM
NC(=O)c1cc(F)c(N[C@@H]2CCCC[C@@H]2N)nc1Nc1cncc(-c2cc(Cl)ccc2F)c1 (relative stereo) [Example 004-207, 6-(cis-2-aminocyclohexylamino)-2-((5-(5-chloro-2-fluorophenyl)pyridin-3-yl)amino)-5-fluoronicotinamide] | < 10 nM

Further lines, results first:

IC50 | SMILES
< 10 nM | NC(=O)c1cc(F)c(N[C@@H]2CCCC[C@@H]2N)nc1Nc1cncc(-c2ccccc2O)c1 (relative stereo) [Example 004-186, 6-(cis-2-aminocyclohexylamino)-5-fluoro-2-((5-(2-hydroxyphenyl)pyridin-3-yl)amino)nicotinamide]
< 10 nM | NC(=O)c1cc(F)c(N[C@@H]2CCCC[C@@H]2N)nc1Nc1ccc2nc(OCCCN3CCCC3=O)ccc2c1 (relative stereo) [Example 004-200, 6-(cis-2-aminocyclohexylamino)-5-fluoro-2-((2-(3-(2-oxopyrrolidin-1-yl)propoxy)quinolin-6-yl)amino)nicotinamide]
< 10 nM | NC(=O)c1cc(F)c(N[C@@H]2CCCC[C@@H]2N)nc1Nc1ccc2nc(-n3nccn3)ccc2c1 (relative stereo) [Example 004-202, 2-((2-(2H-1,2,3-triazol-2-yl)quinolin-6-yl)amino)-6-(cis-2-aminocyclohexylamino)-5-fluoronicotinamide]
< 10 nM | NC(=O)c1cc(F)c(N[C@@H]2CCCC[C@@H]2N)nc1Nc1ccc2nc(-n3cccn3)ccc2c1 (relative stereo) [Example 004-203, 2-((2-(1H-pyrazol-1-yl)quinolin-6-yl)amino)-6-(cis-2-aminocyclohexylamino)-5-fluoronicotinamide]
